Results published in patent publication US20260356856A1, “KRAS G12S AND G12C INHIBITORS” (MIRATI THERAPEUTICS, INC., priority 2023, published 2026).

What was measured:
KRas G12C = target: T1, KRas G12C (Homo sapiens, UniProt P01116, G12C); test: KRas binding assay, TR-FRET displacement of Cy5 labelled tracer; conditions: 60-minute incubation at room temperature, 1% DMSO, pH 7.5
T1 construct: Biotinylated KRas (corresponding to amino acids 1-169, produced at Accelegan Inc.); biotin (biotinylated); purchased Accelegan Inc
T1 sequence (P01116 1-169 isoform P01116-2 G12C): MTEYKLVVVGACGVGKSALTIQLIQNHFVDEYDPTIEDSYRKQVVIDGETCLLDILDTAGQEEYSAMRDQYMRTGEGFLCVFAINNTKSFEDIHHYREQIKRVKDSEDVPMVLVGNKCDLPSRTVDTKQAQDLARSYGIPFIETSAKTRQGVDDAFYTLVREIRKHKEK
Procedure, shortened: (§1)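 IC50 came from fitting POC values with a four-parameter equation. Signal was read after one hour at room temperature. Protein was biotin-tagged KRas 1-169 captured by terbium streptavidin, with compound in 1% DMSO (final).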

KRas G12S = target: T2, KRas G12S (Homo sapiens, UniProt P01116, G12S); test: as above; conditions: 60-minute incubation at room temperature, 1% DMSO, pH 7.5
T2 construct: Biotinylated KRas (corresponding to amino acids 1-169, produced at Accelegan Inc.); biotin (biotinylated); purchased Accelegan Inc
T2 sequence (P01116 1-169 isoform P01116-2 G12S): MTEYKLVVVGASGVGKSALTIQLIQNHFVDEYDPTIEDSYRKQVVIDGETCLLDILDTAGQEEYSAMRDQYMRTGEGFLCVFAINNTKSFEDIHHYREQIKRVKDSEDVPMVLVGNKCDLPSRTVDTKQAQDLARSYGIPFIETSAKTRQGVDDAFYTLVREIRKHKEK
Procedure, shortened: as §1

KRas WT = target: T3, KRas WT (Homo sapiens, UniProt P01116); test: as above; conditions: 60-minute incubation at room temperature, 1% DMSO, pH 7.5
T3 construct: Biotinylated KRas (corresponding to amino acids 1-169, produced at Accelegan Inc.); biotin (biotinylated); purchased Accelegan Inc
T3 sequence (P01116 1-169 isoform P01116-2): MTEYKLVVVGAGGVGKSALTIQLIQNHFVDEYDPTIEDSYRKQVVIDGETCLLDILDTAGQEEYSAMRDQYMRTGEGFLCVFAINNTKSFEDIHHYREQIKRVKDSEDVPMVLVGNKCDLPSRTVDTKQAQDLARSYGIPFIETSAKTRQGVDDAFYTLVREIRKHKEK
Procedure, shortened: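 Truncated KRas (1-169), biotinylated, Tb-streptavidin donor; one-hour room-temperature incubation; IC50 by four-parameter curve fitting.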

[1] = target: T4, KRas-mediated phosphorylation of ERK in MKN1 cells (Homo sapiens, UniProt P01116); test: Inhibition of KRas-mediated phosphorylation of ERK (HTRF), MKN1 cells; type: cell-based; conditions: MKN1 cells (KRas WT); HTRF pERK; 3 h incubation
T4 construct: pERK HTRF read-out
T4 sequence (P01116 1-188 isoform P01116-2): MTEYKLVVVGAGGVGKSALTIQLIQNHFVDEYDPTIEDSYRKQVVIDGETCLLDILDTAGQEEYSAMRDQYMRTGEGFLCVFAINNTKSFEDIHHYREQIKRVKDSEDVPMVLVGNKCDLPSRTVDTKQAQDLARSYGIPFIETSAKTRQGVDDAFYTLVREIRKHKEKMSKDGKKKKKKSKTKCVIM
Protocol: Inhibition of KRas Phosphorylation of ERK (HTRF) by Exemplary Compounds of Formula (Ia) or (Ib)
Cisbio HTRF Advanced pERK Assay Catalog #64AERPEH • Cells: MKN1, PSN1 • Procedure: • 1. Day 1: Seed 6,000 cells/well −25 μl/well in 384-well white solid bottom plate; RPM1_10% FBS. Incubate overnight at 37 °C/5% CO2. • 2.

[2] = target: T5, KRas-mediated phosphorylation of ERK in A549 cells (Homo sapiens, UniProt P01116, G12S); test: Inhibition of KRas-mediated phosphorylation of ERK (HTRF), A549 cells; type: cell-based; conditions: HTRF pERK, 3 h incubation
T5 construct: pERK HTRF read-out
T5 sequence (P01116 1-188 isoform P01116-2 G12S): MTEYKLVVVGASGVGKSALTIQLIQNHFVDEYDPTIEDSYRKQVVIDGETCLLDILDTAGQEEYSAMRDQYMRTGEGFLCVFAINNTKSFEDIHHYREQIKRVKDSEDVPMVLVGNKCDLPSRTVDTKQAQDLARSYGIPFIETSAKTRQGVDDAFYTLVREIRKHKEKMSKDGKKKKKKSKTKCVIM

[3] = target: T6, KRas-mediated phosphorylation of ERK in H358 cells (Homo sapiens, UniProt P01116, G12C); test: Inhibition of KRas-mediated phosphorylation of ERK (HTRF), H358 cells; type: cell-based; conditions: HTRF pERK, 3 h incubation
T6 construct: pERK HTRF read-out
T6 sequence (P01116 1-188 isoform P01116-2 G12C): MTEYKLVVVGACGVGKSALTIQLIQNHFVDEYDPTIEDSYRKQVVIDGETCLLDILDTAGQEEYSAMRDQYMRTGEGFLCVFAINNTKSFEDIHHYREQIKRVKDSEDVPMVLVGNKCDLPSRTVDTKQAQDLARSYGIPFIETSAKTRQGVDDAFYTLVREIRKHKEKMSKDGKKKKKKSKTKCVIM

IC50 (KRas G12C) [nM] | IC50 (KRas G12S) [nM] | IC50 (KRas WT) [nM] | IC50 [1] [nM] | IC50 [2] [nM] | IC50 [3] [nM] | SMILES
22 | 66 | 238 | 1390 | 6650 | 34 | CCc1c(F)ccc2cc(O)cc(-c3ncc4c(N(C)CCN(C)C(=O)n5nccn5)nc(OC[C@@]56CCCN5C[C@H](F)C6)nc4c3F)c12 (single isomer, unassigned) [Example 207]
4 | 74 | 171 | 854 | 3980 | 4 | CCc1c(F)ccc2cc(O)cc(-c3ncc4c(N(C)CCN(C)C(=O)n5ccnn5)nc(OC[C@@]56CCCN5C[C@H](F)C6)nc4c3F)c12 (single isomer, unassigned) [Example 208]
77 | 36 | 63 | 4000 | 109 | 3720 | CCc1c(F)ccc2cc(O)cc(-c3ncc4c(N5CCC(C(=O)n6ccc(C)n6)CC5)nc(OC[C@@]56CCCN5C[C@H](F)C6)nc4c3F)c12 [Example 1, (1-(7-(8-ethyl-7-fluoro-3-hydroxynaphthalen-1-yl)-8-fluoro-2-(((2R,7aS)-2-fluorotetrahydro-1H-pyrrolizin-7a(5H)-yl)methoxy)pyrido[4,3-d]pyrimidin-4-yl)piperidin-4-yl)(3-methyl-1H-pyrazol-1-yl)methanone]
22 | 9 | 51 | 2040 | 69 | 5440 | CCc1c(F)ccc2cc(O)cc(-c3ncc4c(N5CCC(C(=O)n6cccn6)CC5)nc(OC[C@@]56CCCN5C[C@H](F)C6)nc4c3F)c12 [Example 4, (1-(7-(8-ethyl-7-fluoro-3-hydroxynaphthalen-1-yl)-8-fluoro-2-(((2R,7aS)-2-fluorotetrahydro-1H-pyrrolizin-7a(5H)-yl)methoxy)pyrido[4,3-d]pyrimidin-4-yl)piperidin-4-yl)(1H-pyrazol-1-yl)methanone]
54 | 44 | 23 | 70 | 337 | 428 | CCc1c(F)ccc2cc(O)cc(-c3ncc4c(N5CCC(C(=O)OC)CC5)nc(OC[C@@]56CCCN5C[C@H](F)C6)nc4c3F)c12 [Example 16, methyl 1-(7-(8-ethyl-7-fluoro-3-hydroxynaphthalen-1-yl)-8-fluoro-2-(((2R,7aS)-2-fluorotetrahydro-1H-pyrrolizin-7a(5H)-yl)methoxy)pyrido[4,3-d]pyrimidin-4-yl)piperidine-4-carboxylate]
13 | 1590 | 195 | 1360 | 6550 | 808 | CCc1c(F)ccc2cc(O)cc(-c3ncc4c(N5CCC(C(=O)Oc6ccccc6)CC5)nc(OC[C@@]56CCCN5C[C@H](F)C6)nc4c3F)c12 [Example 39, phenyl 1-(7-(8-ethyl-7-fluoro-3-hydroxynaphthalen-1-yl)-8-fluoro-2-(((2R,7aS)-2-fluorotetrahydro-1H-pyrrolizin-7a(5H)-yl)methoxy)pyrido[4,3-d]pyrimidin-4-yl)piperidine-4-carboxylate]
7 | 2 | 77 | 305 | 16 | 88 | CCc1c(F)ccc2cc(O)cc(-c3ncc4c(N5CCCCC(C(=O)n6ccc(C)n6)CC5)nc(OC[C@@]56CCCN5C[C@H](F)C6)nc4c3F)c12 (stereo partly drawn) [Example 53, (1-(7-(8-ethyl-7-fluoro-3-hydroxynaphthalen-1-yl)-8-fluoro-2-(((2R,7aS)-2-fluorotetrahydro-1H-pyrrolizin-7a(5H)-yl)methoxy)pyrido[4,3-d]pyrimidin-4-yl)azocan-4-yl)(3-methyl-1H-pyrazol-1-yl)methanone]
502 | 266 | 483 | 2420 | 334 | 1420 | CCc1c(F)ccc2cc(O)cc(-c3ncc4c(N5CCCC(C(=O)n6ccc(C)n6)CCC5)nc(OC[C@@]56CCCN5C[C@H](F)C6)nc4c3F)c12 [Example 54, (1-(7-(8-ethyl-7-fluoro-3-hydroxynaphthalen-1-yl)-8-fluoro-2-(((2R,7aS)-2-fluorotetrahydro-1H-pyrrolizin-7a(5H)-yl)methoxy)pyrido[4,3-d]pyrimidin-4-yl)azocan-5-yl)(3-methyl-1H-pyrazol-1-yl)methanone]
5 | 28 | 7 | 50 | 116 | 90 | CCc1c(F)ccc2cc(O)cc(-c3ncc4c(N5CCCCCC(C(=O)n6ccc(C)n6)C5)nc(OC[C@@]56CCCN5C[C@H](F)C6)nc4c3F)c12 (stereo partly drawn) [Example 55, (1-(7-(8-ethyl-7-fluoro-3-hydroxynaphthalen-1-yl)-8-fluoro-2-(((2R,7aS)-2-fluorotetrahydro-1H-pyrrolizin-7a(5H)-yl)methoxy)pyrido[4,3-d]pyrimidin-4-yl)azocan-3-yl)(3-methyl-1H-pyrazol-1-yl)methanone]
96 | 66 | 107 | 8500 | 200 | 5580 | CCc1c(F)ccc2cc(O)cc(-c3ncc4c(N5CCC(C(=O)n6cc(C)cn6)CC5)nc(OC[C@@]56CCCN5C[C@H](F)C6)nc4c3F)c12 [Example 57, (1-(7-(8-ethyl-7-fluoro-3-hydroxynaphthalen-1-yl)-8-fluoro-2-(((2R,7aS)-2-fluorotetrahydro-1H-pyrrolizin-7a(5H)-yl)methoxy)pyrido[4,3-d]pyrimidin-4-yl)piperidin-4-yl)(4-methyl-1H-pyrazol-1-yl)methanone]
108 | 221 | 89 | 427 | 338 | 677 | CCc1c(F)ccc2cc(O)cc(-c3ncc4c(N5CCC(C(=O)n6ccc(N(C)C)n6)CC5)nc(OC[C@@]56CCCN5C[C@H](F)C6)nc4c3F)c12 [Example 58, (3-(dimethylamino)-1H-pyrazol-1-yl)(1-(7-(8-ethyl-7-fluoro-3-hydroxynaphthalen-1-yl)-8-fluoro-2-(((2R,7aS)-2-fluorotetrahydro-1H-pyrrolizin-7a(5H)-yl)methoxy)pyrido[4,3-d]pyrimidin-4-yl)piperidin-4-yl)methanone]
8 | < 2 | < 2 | 27 | 372 | 486 | CCc1c(F)ccc2cc(O)cc(-c3ncc4c(N5CC6CCC(C5)C6C(=O)n5cccn5)nc(OC[C@@]56CCCN5C[C@H](F)C6)nc4c3F)c12 (stereo partly drawn) [Example 59, ((1R,5S,8S)-3-(7-(8-ethyl-7-fluoro-3-hydroxynaphthalen-1-yl)-8-fluoro-2-(((2R,7aS)-2-fluorotetrahydro-1H-pyrrolizin-7a(5H)-yl)methoxy)pyrido[4,3-d]pyrimidin-4-yl)-3-azabicyclo[3.2.1]octan-8-yl)(1H-pyrazol-1-yl)methanone]
336 | 34 | 136 | 2610 | 84 | 8570 | CCc1c(F)ccc2cc(O)cc(-c3ncc4c(N5CCC(C(=O)n6ccc(OC)n6)CC5)nc(OC[C@@]56CCCN5C[C@H](F)C6)nc4c3F)c12 [Example 61, (1-(7-(8-ethyl-7-fluoro-3-hydroxynaphthalen-1-yl)-8-fluoro-2-(((2R,7aS)-2-fluorotetrahydro-1H-pyrrolizin-7a(5H)-yl)methoxy)pyrido[4,3-d]pyrimidin-4-yl)piperidin-4-yl)(3-methoxy-1H-pyrazol-1-yl)methanone]
96 | 20 | 145 | 1460 | 40 | 3250 | CCc1c(F)ccc2cc(O)cc(-c3ncc4c(N5CCCC(C(=O)n6ccc(C)n6)CC5)nc(OC[C@@]56CCCN5C[C@H](F)C6)nc4c3F)c12 (stereo partly drawn) [Example 63, (1-(7-(8-ethyl-7-fluoro-3-hydroxynaphthalen-1-yl)-8-fluoro-2-(((2R,7aS)-2-fluorotetrahydro-1H-pyrrolizin-7a(5H)-yl)methoxy)pyrido[4,3-d]pyrimidin-4-yl)azepan-4-yl)(3-methyl-1H-pyrazol-1-yl)methanone]
13 | 40 | 32 | 4500 | 119 | 4600 | CCc1c(F)ccc2cc(O)cc(-c3ncc4c(N5CCC(C(=O)n6cc(N(C)C)cn6)CC5)nc(OC[C@@]56CCCN5C[C@H](F)C6)nc4c3F)c12 [Example 64, (4-(dimethylamino)-1H-pyrazol-1-yl)(1-(7-(8-ethyl-7-fluoro-3-hydroxynaphthalen-1-yl)-8-fluoro-2-(((2R,7aS)-2-fluorotetrahydro-1H-pyrrolizin-7a(5H)-yl)methoxy)pyrido[4,3-d]pyrimidin-4-yl)piperidin-4-yl)methanone]
